Source: US8785488B2 (Exelixis Patent Company LLC, priority 2009, dated 2014)

Molecular target: T1, human TGR5 (h-TGR5) (Homo sapiens, UniProt Q8TDU6)
T1 construct: expressed in transfected cells
T1 sequence (Q8TDU6 1-330): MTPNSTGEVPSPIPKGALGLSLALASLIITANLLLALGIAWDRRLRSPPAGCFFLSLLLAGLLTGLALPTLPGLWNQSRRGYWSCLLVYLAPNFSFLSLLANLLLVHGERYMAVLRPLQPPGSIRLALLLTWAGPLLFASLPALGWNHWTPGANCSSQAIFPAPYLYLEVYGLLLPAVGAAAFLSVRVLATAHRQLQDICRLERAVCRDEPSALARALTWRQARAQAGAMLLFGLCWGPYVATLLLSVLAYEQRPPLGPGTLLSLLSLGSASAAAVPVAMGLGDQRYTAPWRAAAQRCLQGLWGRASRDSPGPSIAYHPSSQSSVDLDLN
Experiment: TGR5/CRE-Luciferiase Assay (HEK 293 hTGR5/CRE-Luc cells)
Assay type: cell-based
Conditions: h-TGR5 CRE-Luc EC50, Table 1; read-out: CRE-Luc (EC50)
Method in brief: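 HEK293 cells stably carrying hTGR5 and a CRE-luciferase reporter were exposed to serially diluted compounds (diluted in DMEM with 5% DMSO) for 6 h. Cells were then lysed in luciferase buffer, luminescence was read, and EC50 values were derived from dose-response curves.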

SMILES	EC50 [µM]
CC(C)(c1ccc(Cl)c(Cl)c1)c1cnc(SCc2c(F)cccc2CO)n1-c1ccc(F)cc1 [{2-[({5-[1-(3,4-dichlorophenyl)-1-methylethyl]-1-(4-fluorophenyl)-1H-imidazol-2-yl}thio)methyl]-3-fluorophenyl}methanol]	0.1 to 1
CC(C)(c1ccc(Cl)c(Cl)c1)c1cnc(SCc2ccc(F)cc2CO)n1-c1ccc(F)cc1 [{2-[({5-[1-(3,4-dichlorophenyl)-1-methylethyl]-1-(4-fluorophenyl)-1H-imidazol-2-yl}thio)methyl]-5-fluorophenyl}methanol]	1 to 10
CC(C)(c1ccc(Cl)c(Cl)c1)c1cnc(SCc2ccc(F)c(CO)c2)n1-c1ccc(F)cc1 [{5-[({5-[1-(3,4-dichlorophenyl)-1-methylethyl]-1-(4-fluorophenyl)-1H-imidazol-2-yl}thio)methyl]-2-fluorophenyl}methanol]	0.1 to 1
CC(C)(c1ccc(Cl)c(Cl)c1)c1cnc(SCc2ccc(F)cc2Cl)n1-c1ccc(F)c(OCC(=O)O)c1 [{[5-(2-{[(2-chloro-4-fluorophenyl)methyl]thio}-5-[1-(3,4-dichlorophenyl)-1-methylethyl]-1H-imidazol-1-yl)-2-fluorophenyl]oxy}acetic acid]	1 to 10

Molecular target: T2, h-TGR5 (Homo sapiens, UniProt Q8TDU6)
T2 construct: expressed in transfected cells
T2 sequence (Q8TDU6 1-330): T1 sequence (Q8TDU6 1-330)
Experiment: TGR5 cAMP Assay using Cisbio cAMP Dynamic2 htrf kit (hTGR5CRE-luc HEK 293 cells)
Assay type: cell-based
Conditions: h-TGR5 cAMP EC50, Table 1; read-out: cAMP (EC50)
Protocol: Compounds were diluted in DPBS with 5% DMSO (8-point serial dilution by half logs) in a 96-well plate and 1 μL was transferred to a 384-well assay plate in quadruplicate. The d2-cAMP and anti-cAMP Ab-cryptate stock solution were prepared as per the instructions in the Cisbio™ (Bedford, Mass.) kit. […] Cells were adjusted to 0.44×10^6 cells/ml followed by addition of IBMX to a final concentration of 0.5 mM. The cells were then mixed with d2-cAMP solution (7.1 mL cells+100 ul d2-cAMP) and 4000 cells (9 μL) were transferred to each well of the 384-well assay plate. Cells without d2-cAMP were added to eight wells as a negative control. The plate was covered and incubated at room temp for 30 min. Then 10 μL of Ab-cryptate solution was added to each well of the assay plate and incubated for 1 hr. The plate was read on an EnVision™ plate reader (Perkin-Elmer, Waltham, Mass.) and the DeltaF value was calculated as per the instructions in the Cisbio™ kit.
In the following tables, EC50 values determined according to the TGR5 cAMP Assay described herein (cAMP); EC50 values determined according to the TGR5/CRE-Luciferiase Assay described herein (CRE-Luc). […] The following compounds in Tables 1 and 2 were made by using procedures described in the above Schemes and Examples, and, where applicable, by making any necessary substitutions of known materials that one skilled in the art would ordinarily understand how to do.

SMILES	EC50 [µM]
COCC1CCCN1NC(=O)NS(=O)(=O)c1ccc(CSc2ncc(C(C)(C)c3ccc(Cl)c(OC)c3)n2-c2ccc(F)cc2)c(Cl)c1 (stereo in doubt) [3-chloro-4-({[5-{1-[4-chloro-3-(methyloxy)phenyl]-1-methylethyl}-1-(4-fluorophenyl)-1H-imidazol-2-yl]thio}methyl)-N-[({(2S)-2-[(methyloxy)methyl]pyrrolidin-1-yl}amino)carbonyl]benzenesulfonamide]	0.1 to 1
CNS(=O)(=O)c1ccc(C(C)(C)c2cnc(SCc3ccc(S(=O)(=O)NC(=O)NN4CCCC4)cc3Cl)n2-c2ccc(F)cc2)cc1Cl [2-chloro-4-{1-[2-({[2-chloro-4-({[(pyrrolidin-1-ylamino)carbonyl]amino}sulfonyl)phenyl]methyl}thio)-1-(4-fluorophenyl)-1H-imidazol-5-yl]-1-methylethyl}-N-methylbenzenesulfonamide]	1 to 10
CC(C)(c1ccc(S(C)(=O)=O)cc1)c1cnc(SCc2c(F)cc(C(=O)O)cc2F)n1-c1ccc(F)cn1 [3,5-difluoro-4-({[1-(5-fluoropyridin-2-yl)-5-{1-methyl-1-[4-(methylsulfonyl)phenyl]ethyl}-1H-imidazol-2-yl]thio}methyl)benzoic acid]	1 to 10
CC(C)(c1ccc(S(C)(=O)=O)cc1)c1cnc(SCc2ccc(S(=O)(=O)NC(=O)NN3CCCC3)cc2Cl)n1-c1ccc(F)c(F)c1 [3-chloro-4-({[1-(3,4-difluorophenyl)-5-{1-methyl-1-[4-(methylsulfonyl)phenyl]ethyl}-1H-imidazol-2-yl]thio}methyl)-N-[(pyrrolidin-1-ylamino)carbonyl]benzenesulfonamide]	1 to 10
Cc1cc(-n2c(C(C)(C)c3ccc(S(C)(=O)=O)cc3)cnc2SCc2ccc(S(=O)(=O)NC(=O)NN3CCCC3)cc2Cl)ccc1F [3-chloro-4-({[1-(4-fluoro-3-methylphenyl)-5-{1-methyl-1-[4-(methylsulfonyl)phenyl]ethyl}-1H-imidazol-2-yl]thio}methyl)-N-[(pyrrolidin-1-ylamino)carbonyl]benzenesulfonamide]	1 to 10
COc1cc(C(C)(C)c2cnc(SCc3ccc(S(=O)(=O)NC(=O)NN4CCCC4)cc3Cl)n2-c2ccc(F)cc2)ccc1S(C)(=O)=O [3-chloro-4-({[1-(4-fluorophenyl)-5-{1-methyl-1-[3-(methyloxy)-4-(methylsulfonyl)phenyl]ethyl}-1H-imidazol-2-yl]thio}methyl)-N-[(pyrrolidin-1-ylamino)carbonyl]benzenesulfonamide]	0.1 to 1
CC(C)(c1ccc(F)c(C(F)F)c1)c1cnc(SCc2ccc(S(=O)(=O)NC(=O)NN3CCCC3)cc2Cl)n1-c1ccc(F)cc1 [3-chloro-4-({[5-{1-[3-(difluoromethyl)-4-fluorophenyl]-1-methylethyl}-1-(4-fluorophenyl)-1H-imidazol-2-yl]thio}methyl)-N-[(pyrrolidin-1-ylamino)carbonyl]benzenesulfonamide]	1 to 10
COc1cc(C(C)(C)c2cnc(SCc3ccc(S(=O)(=O)NC(=O)NN4CCCC4)cc3Cl)n2-c2ncc(F)cc2F)ccc1Cl [3-chloro-4-({[5-{1-[4-chloro-3-(methyloxy)phenyl]-1-methylethyl}-1-(3,5-difluoropyridin-2-yl)-1H-imidazol-2-yl]thio}methyl)-N-[(pyrrolidin-1-ylamino)carbonyl]benzenesulfonamide]	1 to 10
COc1cc(C(C)(C)c2cnc(SCc3ccc(S(=O)(=O)NC(=O)NN4CCCC4)cc3Cl)n2-c2cc(C)c(Cl)cn2)ccc1Cl [3-chloro-4-({[5-{1-[4-chloro-3-(methyloxy)phenyl]-1-methylethyl}-1-(5-chloro-4-methylpyridin-2-yl)-1H-imidazol-2-yl]thio}methyl)-N-[(pyrrolidin-1-ylamino)carbonyl]benzenesulfonamide]	1 to 10
Cc1cc(-n2c(C(C)(C)c3ccc(F)cc3)cnc2SCc2ccc(S(=O)(=O)NC(=O)NN3CCCC3)cc2Cl)ccc1F [3-chloro-4-[({1-(4-fluoro-3-methylphenyl)-5-[1-(4-fluorophenyl)-1-methylethyl]-1H-imidazol-2-yl}thio)methyl]-N-[(pyrrolidin-1-ylamino)carbonyl]benzenesulfonamide]	0.1 to 1
COc1cc(-n2c(C(C)(C)c3ccc(F)cc3)cnc2SCc2ccc(S(=O)(=O)NC(=O)NN3CCCC3)cc2Cl)ccc1F [3-chloro-4-[({1-[4-fluoro-3-(methyloxy)phenyl]-5-[1-(4-fluorophenyl)-1-methylethyl]-1H-imidazol-2-yl}thio)methyl]-N-[(pyrrolidin-1-ylamino)carbonyl]benzenesulfonamide]	0.1 to 1
CC(C)(c1ccc(Cl)cc1)c1cnc(SCc2ccc(S(=O)(=O)NC(=O)NN3CCCC3)cc2Cl)n1-c1ccc(F)cc1F [3-chloro-4-[({5-[1-(4-chlorophenyl)-1-methylethyl]-1-(2,4-difluorophenyl)-1H-imidazol-2-yl}thio)methyl]-N-[(pyrrolidin-1-ylamino)carbonyl]benzenesulfonamide]	1 to 10
CC(C)(c1ccc(S(N)(=O)=O)cc1)c1cnc(SCc2ccc(S(=O)(=O)NC(=O)NN3CCOCC3)cc2Cl)n1-c1ccc(F)c(F)c1 [4-({[5-{1-[4-(aminosulfonyl)phenyl]-1-methylethyl}-1-(3,4-difluorophenyl)-1H-imidazol-2-yl]thio}methyl)-3-chloro-N-[(morpholin-4-ylamino)carbonyl]benzenesulfonamide]	1 to 10
CC(C)(c1ccc(S(N)(=O)=O)cc1)c1cnc(SCc2ccc(S(=O)(=O)NC(=O)NN3CCOCC3)cc2Cl)n1-c1ccc(F)c(Cl)c1 [4-({[5-{1-[4-(aminosulfonyl)phenyl]-1-methylethyl}-1-(3-chloro-4-fluorophenyl)-1H-imidazol-2-yl]thio}methyl)-3-chloro-N-[(morpholin-4-ylamino)carbonyl]benzenesulfonamide]	1 to 10
CNS(=O)(=O)c1ccc(C(C)(C)c2cnc(SCc3ccc(S(=O)(=O)NC(=O)NN4CCCC4)cc3Cl)n2-c2ccc(F)cc2)cc1OC [4-{1-[2-({[2-chloro-4-({[(pyrrolidin-1-ylamino)carbonyl]amino}sulfonyl)phenyl]methyl}thio)-1-(4-fluorophenyl)-1H-imidazol-5-yl]-1-methylethyl}-N-methyl-2-(methyloxy)benzenesulfonamide]	0.1 to 1
CC(C)(c1ccc(S(C)(=O)=O)cc1)c1cnc(SCc2ccc(Cl)c(-c3nnn[nH]3)c2)n1-c1ccc(F)c(F)c1 [5-[2-chloro-5-({[1-(3,4-difluorophenyl)-5-{1-methyl-1-[4-(methylsulfonyl)phenyl]ethyl}-1H-imidazol-2-yl]thio}methyl)phenyl]-1H-tetrazole]	1 to 10
CC(C)(c1ccc(S(C)(=O)=O)cc1)c1cnc(SCc2ccc(Cl)c(-c3nnn[nH]3)c2)n1-c1ccc(F)cc1 [5-[2-chloro-5-({[1-(4-fluorophenyl)-5-{1-methyl-1-[4-(methylsulfonyl)phenyl]ethyl}-1H-imidazol-2-yl]thio}methyl)phenyl]-1H-tetrazole]	1 to 10
